Measured values reported in publication PMC6214812, “The mycosporine-like amino acids porphyra-334 and shinorine are antioxidants and direct antagonists of Keap1-Nrf2 binding” (Biochimie, 2018).
Like-named read-outs stand apart in the source and are kept apart here.

What was measured:
[1] = target: T1, Kelch-like ECH-associated protein 1 (Keap1) (Homo sapiens, UniProt Q14145); assay: FP competition with FITC-(βAla)-DEETGEF-OH; thermal shift (ΔTm […] °C at […]); assay type: binding
T1 construct: Kelch-repeat domain
T1 sequence (Q14145 321-609 limits assumed): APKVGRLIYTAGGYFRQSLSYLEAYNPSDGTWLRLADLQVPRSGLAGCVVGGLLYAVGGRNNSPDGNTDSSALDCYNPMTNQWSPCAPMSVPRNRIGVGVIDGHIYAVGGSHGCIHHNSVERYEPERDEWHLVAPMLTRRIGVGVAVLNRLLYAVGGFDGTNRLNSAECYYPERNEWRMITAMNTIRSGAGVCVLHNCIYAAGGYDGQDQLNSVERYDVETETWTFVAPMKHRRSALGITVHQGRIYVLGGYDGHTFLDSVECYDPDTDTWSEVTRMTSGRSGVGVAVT

[2] = target: T1, Kelch-like ECH-associated protein 1 (Keap1); assay: as above; assay type: binding; remark: listed apart in the source

IC50 [1]	IC50 [2]	Compound
~100 µM	–	COC1=C(NCC(=O)O)C[C@@](O)(CO)C/C1=N\[C@@H](CO)C(=O)O [shinorine]
–	~100 µM	COC1=C(NCC(=O)O)CC(O)(CO)CC1=NC(C(=O)O)C(C)O (centres unmarked) [porphyra-334]
